Several values for one entry are separate records, joined by “and”; a condition that tells them apart may be missing. Equal entries are not always repeated. Inconclusive results and toxic doses are left out. How the source made its calls: active means survival T/C of 150% or more; inactive means T/C below 125% in these data. Numbered stars: 1 amine (or outer) side, 2 acyl side, 3 side chain; on linkers, the order of the positions; unused ones are H or OH. Square brackets hold non-standard residues; d marks the D form. Peptide text beside a SMILES is read from it. X9 = C=CCC(O[*:1])C(=O)[*:2]; NMeV = CN[CH](C(=O)O)C(C)C; NMeA = CN[CH](C)C(=O)O; βAla = NCCC(=O)O
System: P388 leukemia ip, CD2F1 mice, survival T/C
Assay: NCI In Vivo Anticancer Drug Screen. Data for tumor model P388 Leukemia (intraperitoneal) in CD2F1 (CDF1) mice
Details: endpoint: median survival time, higher = longer survival
Procedure, shortened: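 Mice carrying the transplanted tumor received test compound or vehicle. Survival was recorded in each group, and the value is the treated-group measurement divided by that of the vehicle-treated control group.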

[1] = dose: 50.0 mg/kg/injection, schedule: Q01DX005 (ip), vehicle: Klucel (hydroxypropylcellulose) (HPC)
[2] = dose: 100.0 mg/kg/injection, schedule: Q01DX005 (ip), vehicle: Klucel (hydroxypropylcellulose) (HPC)
[3] = dose: 200.0 mg/kg/injection, schedule: Q01DX005 (ip), vehicle: Klucel (hydroxypropylcellulose) (HPC)
[4] = dose: 50.0 mg/kg/injection, schedule: Q01DX009 (ip), vehicle: saline
[5] = dose: 100.0 mg/kg/injection, schedule: Q01DX009 (ip), vehicle: saline
[6] = dose: 200.0 mg/kg/injection, schedule: Q01DX009 (ip), vehicle: saline
[7] = dose: 50.0 mg/kg/injection, schedule: Q01DX009 (ip), vehicle: Klucel (hydroxypropylcellulose) (HPC)
[8] = dose: 100.0 mg/kg/injection, schedule: Q01DX009 (ip), vehicle: Klucel (hydroxypropylcellulose) (HPC)
[9] = dose: 200.0 mg/kg/injection, schedule: Q01DX009 (ip), vehicle: Klucel (hydroxypropylcellulose) (HPC)
[10] = dose: 100.0 mg/kg/injection, schedule: Q04DX002 (ip), vehicle: Klucel (hydroxypropylcellulose) (HPC)
[11] = dose: 200.0 mg/kg/injection, schedule: Q04DX002 (ip), vehicle: Klucel (hydroxypropylcellulose) (HPC)
[12] = dose: 400.0 mg/kg/injection, schedule: Q04DX002 (ip), vehicle: Klucel (hydroxypropylcellulose) (HPC)
[13] = dose: 50.0 mg/kg/injection, schedule: Q01DX005 (ip), vehicle: saline with Tween-80
[14] = dose: 100.0 mg/kg/injection, schedule: Q01DX005 (ip), vehicle: saline with Tween-80
[15] = dose: 200.0 mg/kg/injection, schedule: Q01DX005 (ip), vehicle: saline with Tween-80
[16] = dose: 60.0 mg/kg/injection, schedule: Q01DX005 (ip), vehicle: saline
[17] = dose: 120.0 mg/kg/injection, schedule: Q01DX005 (ip), vehicle: saline
[18] = dose: 240.0 mg/kg/injection, schedule: Q01DX005 (ip), vehicle: saline
[19] = dose: 60.0 mg/kg/injection, schedule: Q01DX005 (ip), vehicle: saline with Tween-80
[20] = dose: 120.0 mg/kg/injection, schedule: Q01DX005 (ip), vehicle: saline with Tween-80

Measured: T/C

OCCNc1cc(Cl)c(N=C2N(Cc3ccccc3)CCN2Cc2ccccc2)c(Cl)c1
inactive: [1] 102 % of control | [2] 97 % of control | [3] 100 % of control

C[n+]1cc2c3ccccc3ccc2c2ccccc21
inactive: dose: 12.5 mg/kg/injection, schedule: Q04DX003 (ip), vehicle: distilled water + Tween-80 113 % of control | dose: 25.0 mg/kg/injection, schedule: Q04DX003 (ip), vehicle: distilled water + Tween-80 105 % of control

O=S(=O)(Cl)C(F)(F)C(F)(F)F
inactive: [4] 100 % of control | [5] 110 % of control | [6] 103 % of control

CCCn1c(C)nc2[nH]ncc2c1=O
inactive: [1] 100 % of control | [2] 98 % of control | [3] 92 % of control

Cc1ccc(C)c(C(O)C2CC2)c1 (stereo not given)
inactive: dose: 100.0 mg/kg/injection, schedule: Q04DX003 (ip), vehicle: saline with Tween-80 100 % of control | dose: 200.0 mg/kg/injection, schedule: Q04DX003 (ip), vehicle: saline with Tween-80 104 % of control

COc1ccc(NC(=O)C2C(=O)C(=O)N(c3ccc(OC)cc3OC)C2=O)c(OC)c1 (stereo not given)
inactive: [7] 98 % of control | [8] 100 % of control | [9] 98 % of control

CCOC(=O)C1=C(C)N(Cc2ccccc2)C2(O)C1=CC(=O)C(Cl)=C2Cl (stereo not given)
inactive: [4] 99 % of control | [5] 105 % of control | [6] 108 % of control

CC(C)(C)c1ccc(C(O)(C(F)(F)F)C(F)(F)F)cc1
inactive: [10] 94 % of control | [11] 94 % of control | [12] 109 % of control

CN(C)C1CCCCC1[N+](C)(C)C (stereo not given)
inactive: dose: 5.0 mg/kg/injection, schedule: Q01DX009 (ip), vehicle: saline sonified 100 % of control | dose: 10.0 mg/kg/injection, schedule: Q01DX009 (ip), vehicle: saline sonified 95 % of control | dose: 20.0 mg/kg/injection, schedule: Q01DX009 (ip), vehicle: saline sonified 90 % of control

O=C1OC(c2ccccc2)(c2ccc(Cl)cc2)CC1/C=C(\c1ccccc1)c1ccc(Cl)cc1 (stereo not given)
inactive: [13] 96 % of control | [14] 90 % of control | [15] 91 % of control

CCCCCCCCCCCCCCC(O)c1ccccc1 (stereo not given)
inactive: dose: 7.5 mg/kg/injection, schedule: Q01DX009 (ip), vehicle: Klucel (hydroxypropylcellulose) (HPC) 113 % of control | dose: 15.0 mg/kg/injection, schedule: Q01DX009 (ip), vehicle: Klucel (hydroxypropylcellulose) (HPC) 115 % of control | dose: 30.0 mg/kg/injection, schedule: Q01DX009 (ip), vehicle: Klucel (hydroxypropylcellulose) (HPC) 110 % of control

O=C1OC(C2OC(=O)C(=O)C2C(=O)c2ccc(Cl)c(Cl)c2)C(C(=O)c2ccc(Cl)c(Cl)c2)C1=O (stereo not given)
inactive: [16] 100 % of control | [17] 96 % of control | [18] 90 % of control

CC1C2c3ccccc3C(c3ccccc32)C1CN1C(CCO)COC1c1ccccc1 (stereo not given)
inactive: [19] 92 % of control | [20] 87 % of control | dose: 240.0 mg/kg/injection, schedule: Q01DX005 (ip), vehicle: saline with Tween-80 90 % of control

COC1(OC)C=NNc2ncnn21
inactive: [16] 103 % of control | [17] 104 % of control | [18] 105 % of control

C/C(=C\c1ccc(OCC(=O)O)c(Cl)c1Cl)[N+](=O)[O-]
inactive: dose: 12.5 mg/kg/injection, schedule: Q01DX001 (ip), vehicle: saline with Tween-80 100 % of control and 102 % of control | dose: 25.0 mg/kg/injection, schedule: Q01DX001 (ip), vehicle: saline with Tween-80 98 % of control and 100 % of control

C/C(Cl)=C\C(=O)c1c(C)[nH]n(-c2ccccc2)c1=O
inactive: [1] 99 % of control | [2] 111 % of control

CS(C)(=O)=Nc1ccc(I)cc1
inactive: dose: 50.0 mg/kg/injection, schedule: Q04DX002 (ip), vehicle: Klucel (hydroxypropylcellulose) (HPC) 105 % of control | [10] 102 % of control and 104 % of control and 105 % of control | dose: 100.0 mg/kg/injection, schedule: Q04DX003 (ip), vehicle: saline 98 % of control | [11] 101 % of control and 113 % of control and 119 % of control | dose: 200.0 mg/kg/injection, schedule: Q04DX003 (ip), vehicle: saline 100 % of control | [12] 101 % of control and 105 % of control and 120 % of control | dose: 400.0 mg/kg/injection, schedule: Q04DX003 (ip), vehicle: saline 94 % of control

O=C(Sc1ccccc1)C1CC=CCC1 (stereo not given)
inactive: [7] 109 % of control | [8] 105 % of control

OC1C=C(c2ccccc2)C(O)(c2ccccc2)C1 (stereo not given)
inactive: [7] 100 % of control | [8] 100 % of control | [9] 92 % of control

C=CCC1OC(=O)CCNC(=O)C(C)N(C)C(=O)C(C(C)C)N(C)C(=O)C(C(C)CC)NC(=O)C2CCCN2C1=O (stereo not given) (cyclo([X9]PI[NMeV][NMeA][βAla]); configuration not given here)
inactive: dose: 1.56 mg/kg/injection, schedule: Q01DX005 (ip), vehicle: water 94 % of control | dose: 3.12 mg/kg/injection, schedule: Q01DX005 (ip), vehicle: water 95 % of control | dose: 6.25 mg/kg/injection, schedule: Q01DX005 (ip), vehicle: water 101 % of control | dose: 12.5 mg/kg/injection, schedule: Q01DX005 (ip), vehicle: water 104 % of control

COc1cc2cccc(O)c2cc1OC
inactive: dose: 12.5 mg/kg/injection, schedule: Q01DX009 (ip), vehicle: other 90 % of control | dose: 25.0 mg/kg/injection, schedule: Q01DX009 (ip), vehicle: other 106 % of control | dose: 50.0 mg/kg/injection, schedule: Q01DX009 (ip), vehicle: other 92 % of control | dose: 200.0 mg/kg/injection, schedule: Q01DX009 (ip), vehicle: other 90 % of control

COC(=O)C1=COC(C)C2CN3CCC4(C(=O)Nc5ccccc54)C3CC12 (stereo not given)
inactive: [19] 101 % of control | [20] 101 % of control

CSc1nc(C)c(Br)c(N2CC2)n1
inactive: dose: 3.12 mg/kg/injection, schedule: Q01DX005 (ip), vehicle: Klucel (hydroxypropylcellulose) (HPC) 89 % of control | dose: 6.25 mg/kg/injection, schedule: Q01DX005 (ip), vehicle: Klucel (hydroxypropylcellulose) (HPC) 110 % of control and 94 % of control | dose: 12.5 mg/kg/injection, schedule: Q01DX005 (ip), vehicle: Klucel (hydroxypropylcellulose) (HPC) 99 % of control and 110 % of control | dose: 25.0 mg/kg/injection, schedule: Q01DX005 (ip), vehicle: Klucel (hydroxypropylcellulose) (HPC) 120 % of control and 89 % of control and 97 % of control | [1] 101 % of control and 102 % of control | [2] 105 % of control

C=C(C)c1c2ccccc2cc2cccc(Sc3ccc(C(C)(C)C)cc3)c12
inactive: dose: 100.0 mg/kg/injection, schedule: Q04DX002 (ip), vehicle: saline with Tween-80 101 % of control | dose: 200.0 mg/kg/injection, schedule: Q04DX002 (ip), vehicle: saline with Tween-80 96 % of control | dose: 400.0 mg/kg/injection, schedule: Q04DX002 (ip), vehicle: saline with Tween-80 92 % of control

O=C(CN1CCOCC1)c1cc2c(c3ccccc13)CCCC2
inactive: [1] 94 % of control | [2] 99 % of control | [3] 96 % of control

O=C(NC1CCCCC1C1CCC(Cl)CC1)c1ccccc1 (stereo not given)
inactive: [13] 89 % of control | [14] 87 % of control | [15] 87 % of control

NN1C(=O)c2ccccc2C1=O
inactive: dose: 50.0 mg/kg/injection, schedule: Q01DX009 (ip), vehicle: saline with Tween-80 96 % of control | dose: 100.0 mg/kg/injection, schedule: Q01DX009 (ip), vehicle: saline with Tween-80 112 % of control | dose: 200.0 mg/kg/injection, schedule: Q01DX009 (ip), vehicle: saline with Tween-80 95 % of control | dose: 400.0 mg/kg/injection, schedule: Q01DX009 (ip), vehicle: saline with Tween-80 99 % of control

CCOC(=O)CCC(CC)NC(=O)c1ccc(N)cc1 (stereo not given)
inactive: dose: 12.5 mg/kg/injection, schedule: Q01DX009 (ip), vehicle: distilled water + Tween-80 93 % of control | dose: 25.0 mg/kg/injection, schedule: Q01DX009 (ip), vehicle: distilled water + Tween-80 91 % of control | dose: 50.0 mg/kg/injection, schedule: Q01DX009 (ip), vehicle: distilled water + Tween-80 98 % of control | dose: 100.0 mg/kg/injection, schedule: Q01DX009 (ip), vehicle: distilled water + Tween-80 102 % of control | dose: 200.0 mg/kg/injection, schedule: Q01DX009 (ip), vehicle: distilled water + Tween-80 106 % of control

— PubChem BioAssay AID330 (DTP/NCI, 2004)
